# Measurements reported in patent US11478474B2, “2-(3′-(hydroxymethyl)-1-methyl-5-((5-(2-methyl-4-(oxetan-3-yl)piperazin-1-yl)pyridin-2-yl)amino)-6-oxo-1,6-dihydro-[3,4′-bipyridin]-2′-yl)-7,7-dimethyl-7,8-dihydro-2H-cyclopenta[4,5]pyrrolo[1,2-a]pyrazin-1(6H)-one as a BTK inhibitor” (HUTCHISON MEDIPHARMA LIMITED, priority 2020, dated 2022).
# Assays:
# [1] = In vivo efficacy of the inhibitory effect on BTK target (anti-IgD antibody-induced B cell activation in mice whole blood after in vivo administration); settings: female, C57BL/6, mouse; 20 mg/kg single oral gavage, 16 h, mice plasma; read-out: Drug concentration in plasma
# Method: (§1) Objects: B cells in mice whole blood were induced and activated by the anti-IgD antibody, and the inhibitory effect of the compound of the present invention on B cell activation in vivo was studied, so as to determine the inhibitory effect of the compound of the present invention on the BTK target in vivo.
# (§2) Methods: C57BL/6 mice (female, 18-20 g, purchased from Shanghai Lingchang Biotechnology Co., Ltd.) were grouped according to Table 2.
# (§3) The animals of each group were administered, then were placed in CO2 for anesthesia at designated time points, blood samples were taken from […] via retro-orbital bleeding, and heparin was used for anticoagulation; 90 μL of whole blood was taken from mice of each group, and added to a 96 well culture plate, and anti-mouse IgD antibody (BIO-RAD, Cat #MCA4693) was added to each well to a final concentration of 0.01 μg/μL (respectively for the each drug-treated group and anti-IgD antibody-inducted vehicle group); in addition, 90 μL of whole blood of mice in the vehicle group was taken and added to the 96-well culture plate, and PBS (phosphate buffer, GIBCO, Cat #C20012500BT) was added to each well to a final concentration of 0.01 μg/μL (namely, the vehicle control group); Each group was mixed well and incubated in a 37° C./5% CO2 incubator for 4 hours. In addition, the blood of mice in the drug-treated group was centrifuged to separate plasma for blood concentration analysis.
# (§4) Calculation for B Cell Activation Ratio: B cell activation ratio=percentage of CD69+CD19+double positive B cells/percentage of CD19+single positive B cells
# (§5) Calculation for Inhibition Ratio: Inhibition ratio=(percentage of B cell activation ratio in anti-IgD antibody-induced vehicle group-percentage of B cell activation ratio in drug-treated group)/(percentage of B cell activation ratio in anti-IgD antibody-induced vehicle group-percentage of B cell activation ratio in vehicle control group)×100%
# (§6) All data are represented by mean±standard error. For the comparison between each drug-treated group and the anti-IgD antibody-induced vehicle group, p value was calculated by Graphpad Prism using one-way ANOVA analysis of variance and Dunnett's test, and for the comparison between each drug-treated group, p value was calculated by using unpaired t test.
# [2] = system: B cell activation in mouse whole blood induced by anti-IgD antibodies; experiment: as above
# Method: as §1, §2, §3, §4, §5, §6
compound,measurement,setting,value
Cn1cc(-c2ccnc(-n3ccn4c5c(cc4c3=O)CC(C)(C)C5)c2CO)cc(Nc2ccc(N3CCN4CCOCC4C3)cn2)c1=O (racemic) [Compound 232],concentration at 16 h,[1],76.2 ± 41.7 ng/mL
same,Inhibition ratio (%),"[2]; 20 mg/kg single oral gavage, 16 h",89%
same,B cell activation ratio (the proportion of activated B cells to total B cells),"[2]; 20 mg/kg single oral gavage, 16 h, mean ± standard error",8.4 ± 1.9^***&
same,inhibition ratio on B cell activation,"[2]; 20 mg/kg, 16 hours after administration, mice whole blood, anti-IgD antibody",89%
